# Results taken from patent EP0249394B1 (THE UNITED STATES OF AMERICA as represented by the …, priority 1986, dated 1993).
# Tested on: T4 viral receptors
# Assay: General statements: binding to T4 viral receptors / inhibition of gp 120 binding to brain membranes
# Procedure: Radiolabeling of gp 120, Preparation of Brain Membranes, Binding and Crosslinking of gp120 to Receptor, and Immunoprecipitation of T4 Antigen. HTLV-IIIb isolate of HIV was propaged in H9 cells, and the gp120 was isolated by immunoaffinity chromatography and preparative NaDodSO₄/PAGE. Purified gp120 was labeled with ¹²⁵I by the chloramine-T method.
# Fresh human, monkey, and rat hippocampus were quickly homogenized (Polytron, Brinkmann Instruments) in 100 vol of ice-cold 50 mM Hepes (pH 7.4). The membranes collected by centrifugation (15,000 x g) were washed in the original buffer volume and were used fresh or stored at -70°C. Before use, brain membranes and highly purified T cells (ref. 16; gift of Larry Wahl) were preincubated for 15-30 min in phosphate-buffered saline (PBS). Membranes derived from 2mg (initial wet weight) of brain (≈100µg of protein) were incubated with 28,000 cpm of ¹²⁵I-gp120 for 1 hr at 37°C in 200 µl (final volume) of 50 mM Hepes containing 0.1% bovine serum albumin and the peptidase inhibitors bacitracin (0.005%), aprotinin (0.005%), leupeptin (0.001%), and chymostatin (0.001%). Incubations were rapidly vacuum-filtered and counted to determine the receptor-bound material.
substance,measurement,value
CYS-THR-THR-ASN-TYR-THR-CYS (CTTNYTC; printed: CYS-THR-THR-ASN-TYR-THR-CYS) [seven amino acid peptide],activity (test not specified),active
